Measurements published in ChEMBL document CHEMBL1148510, “Synthesis and photocytotoxic activity of new chlorin-polyamine conjugates” (Bioorg Med Chem Lett, 2006).
Calls of active or inactive are those of the source. The calls are words filed in the database; no cut-off is given here.

Key:
[1] = Partition coefficient, Log P of the compound; assay type: physicochemical; settings: octanol/water
K562 [2] = assay: Photocytotoxicity against human K562 cells at 2 uM; assay type: functional, cell-based
K562 [3] = assay: Cytotoxicity against human K562 cells at 2 uM after 24 hrs in dark; assay type: functional, cell-based

logP [1]	SMILES	Activity (K562 [2])	Activity (K562 [3])
-1.87	CN(CCCN)CCCCNCCCCNC(=O)c1ccc(-c2c3nc(c(-c4ccc(C(=O)NCCCCNCCCCN(C)CCCN)cc4)c4ccc([nH]4)c(-c4ccc(C(=O)NCCCCNCCCN(C)CCCCN)cc4)c4ccc([nH]4)c(-c4ccc(C(=O)NCCCCNCCCN(C)CCCCN)cc4)c4nc2CC4)C=C3)cc1		
-1.98	CN(CCCCNCCCCNC(=O)c1ccc(-c2c3nc(c(-c4ccc(C(=O)NCCCCNCCCCN(C)CCCNCCCN)cc4)c4ccc([nH]4)c(-c4ccc(C(=O)NCCCCNCCCN(C)CCCCNCCCN)cc4)c4ccc([nH]4)c(-c4ccc(C(=O)NCCCCNCCCN(C)CCCCNCCCN)cc4)c4nc2CC4)C=C3)cc1)CCCNCCCN		
-0.83	C=Cc1c(C)c2cc3nc(c(CC(=O)NCCCCNCCCN(C)CCCCNCCCN)c4nc(cc5[nH]c(cc1[nH]2)c(C)c5CC)C(C)=C4C(=O)NCCCCNCCCN(C)CCCCNCCCN)[C@@H](CCC(=O)NCCNCCCN(C)CCCCNCCCN)[C@@H]3C	Active	Active
-0.45	C=Cc1c(C)c2cc3nc(c(CC(=O)NCCCCNCCCN(C)CCCCN)c4nc(cc5[nH]c(cc1[nH]2)c(C)c5CC)C(C)=C4C(=O)NCCCCNCCCN(C)CCCCN)[C@@H](CCC(=O)NCCNCCCN(C)CCCCN)[C@@H]3C	Active	Active
